Reference: patent publication US20030181401A1, “Insulin secretion promoter” (KYOWA HAKKO KOGYO CO., LTD., priority 2002, published 2003)
Values joined by “and” are separate entries in the source; they are usually repeats but may differ in a detail not shown here. Equal values may be shown once.

Tests used:
Assay type in all cases: in vivo
ICR mice = assay: Test Example 2: serum insulin in glucose tolerance test after 7-day oral dosing, normal mice
Procedure: Eleven male 9-week-old ICR mice as normal mice (SLC, Inc.) were fed a commercially available CE-2 (Clea Japan, Inc.) for one week, so as to accustom the mice to the environment.
After acclimation, an aqueous 10% solution of 2′-fucosyllactose was orally administered to the mice at 200 mg (2′-FL)/kg body weight in the morning and at 300 mg (2′-FL)/kg body weight in the evening. The same volume of saline was administered to the control group. The aqueous 2′-FL solution and saline were both dosed daily to the mice for 7 days.
During the dosing period, CE-2 was given together with drinking water ad libitum. […]
After the reaction, the plate was rinsed four times with the rinse solution. […] The absorbance of the reaction solution in the wells at 450 nm was read with a plate reader. Herein, a standard curve was prepared by using the standard insulin solution (mice, 200 ng/ml) attached to the kit as a standard solution to dilute the standard solution appropriately with the buffer solution attached to the kit for the same reaction as for the serum, and plotting the relation between the concentration and the absorbance (450 nm). Based on the prepared standard curve and the absorbance from the reaction with the serum, the insulin concentration in the serum was determined.

[1] = tested on: STZ-induced diabetic rats (Wistar); assay: Test Example 9: serum insulin in glucose tolerance test, Type I diabetes mellitus model
Procedure: Male 7-week-old Wistar rats (Japan SLC, Inc.) were fed CE-2 (Clea Japan, Inc.) for one week, so as to accustom the rats to the environment.
After 18-hour starvation of the accustomed rats, […] of 50 mM citrate buffer, pH 4.5containing 15 mg of streptozotocin (WAKO Pure Chemical Industries, Inc.; abbreviated as “STZ” hereinafter) was prepared and administered to 25 mg (STZ)/kg body weight from their tail vein. Five days after the STZ administration, the rats were fasted for 18 hours. Blood was taken from puncture in the tail vein to assay blood glucose with a simple-type blood glucose assay apparatus Medisafe Reader GR-101 (Terumo, Co., Ltd.), to select 5 rats (Nos. 1, 3, 4, 5, 8) at mild state of diabetes mellitus with a blood glucose level of 200 mg/dl or less.
An aqueous 2% solution of 2′-fucosyllactose was prepared and administered to the rat No. 1 from the tail vein to 50 mg/kg body weight on a 2′-FL dose basis. 0.9% physiological saline was administered to rats Nos. 3, 4, 5 and 8. […] Zero minute and 30, 60, 120, and 240 minutes after glucose loading, blood was taken from a tail vein, to assay blood glucose with Medisafe Reader GR-101 and collect the serum.
12 days after the STZ dosing, the rats were fasted for 18 hours. […] Zero minute and 30, 60, 120, and 240 minutes after glucose loading, blood was taken from a tail vein, to assay blood glucose with Medisafe Reader GR-101 and collect the serum.
Insulin in the serum was assayed by enzyme immunoassay using Morinaga ultra-sensitive rat insulin assay kit (Morinaga Biochemical Research Institute, Co., Ltd.) in the same manner as in Test Example 8. Additionally, a standard curve was prepared by diluting […] of the standard insulin (rat) attached to the kit with 100 μl of saline to use the resulting 25.6 ng/ml insulin solution as the standard solution, diluting the standard solution appropriately with the diluent attached to the kit for the same reaction as for the serum, and plotting the relation between the concentration and the absorbance at the principal wave length of 450 nm and at the sub wave length of 655 nm. […]

db/db mice = assay: Test Example 4: serum insulin in glucose tolerance test after 7-day oral dosing of saccharides
Procedure: Groups of male 9-week-old db/db mice (Clea Japan, Inc.) each consisting of 6 mice were fed CE-2 (Clea Japan, Inc.) for one week, so as to accustom the animals to the environment.
After acclimation, individual aqueous 10% solutions of 3′-sialyllactose (abbreviated as “3′-SL” hereinafter), 6′-sialylactose (abbreviated as “6′-SL”) and 2′-FL were orally administered to the mice at 200 mg (saccharide)/kg body weight in the morning and at 300 mg (saccharide)/kg body weight in the evening. The both volume of saline was administered to the control group. The individual aqueous saccharide solutions and saline were both dosed daily to the mice for 7 days. During the dosing period, CE-2 was given together with drinking water ad libitum.
After 18-hour starvation from the final dosing on day 7, an aqueous 40% glucose solution was orally administered to 2 g (glucose)/kg body weight to the mice, to perform glucose tolerance test. Zero minute and 30 minutes after glucose loading, blood was taken from a tail vein. […] Blood was centrifuged (4° C., 10000 rpm, 10 minutes), to obtain serum.
Insulin in the serum recovered was assayed by enzyme immunoassay using Lebis Insulin kit (for rats-T) (Shibayagi, Co., Ltd.) in the same manner as in the Test Example 1.

[2] = oral 200 + 300 mg/kg daily, 7 days, glucose 2 g/kg oral, 120 minutes, mean ± SD

2′-fucosyllactose [2′-FL]
insulin concentration 120 minutes after glucose loading compared with the control group (in words) (ICR mice; continuous daily oral dosing): increased | Serum insulin concentration after glucose loading, 120 minutes (ICR mice; [2]): 0.35 ± 0.24 ng/mL | serum insulin concentration via glucose loading (in words) ([1]; STZ-induced diabetic rats, glucose loading 2 hours after intravenous dosing): increased | Serum insulin concentration, 0 minute ([1]; individual STZ rats Nos. 1, 3, 4, 5, 8, 50 mg/kg intravenous two hours before glucose 1 g/kg oral, 0 minute after glucose loading, 50 mg/kg): 125.8 pg/mL and 697.0 pg/mL and 197.4 pg/mL and 180.4 pg/mL and 312.5 pg/mL | Serum insulin concentration, 30 minutes ([1]; individual STZ rats Nos. 1, 3, 4, 5, 8, 50 mg/kg intravenous two hours before glucose 1 g/kg oral, 30 minutes after glucose loading, 50 mg/kg): 331.1 pg/mL and 586.6 pg/mL and 915.1 pg/mL and 475.5 pg/mL and 148.4 pg/mL | serum insulin concentration during glucose loading compared with the control group (in words) (db/db mice; continuous daily oral dosing): increased | Serum insulin concentration after glucose loading, 30 minutes (db/db mice; oral 200 + 300 mg/kg daily, 7 days, glucose 2 g/kg oral, 30 minutes, mean ± SD): 8.3 ± 3.9 ng/mL | Serum insulin concentration after glucose loading, 120 minutes (db/db mice; [2]): 26.1 ± 12.9 ng/mL | Serum insulin concentration after glucose loading, Zero minute (db/db mice; oral 200 + 300 mg/kg daily, 7 days, glucose 2 g/kg oral, zero minute, mean ± SD): 6.7 ± 3.3 ng/mL
